Source: PubChem BioAssay AID330 (DTP/NCI, 2004)
Several values for one entry are separate records, joined by “and”; a condition that tells them apart may be missing. Identical values can stand only once. Inconclusive results and toxic doses are left out. Square brackets hold non-standard residues; d marks the D form. Peptide text beside a SMILES is read from it. * marks the point of attachment. Cbz = O=C(OCc1ccccc1)*; Nva = CCC[CH](N)C(=O)O; OtBu = CC(C)(C)O*

Tested on: P388 leukemia ip, CD2F1 mice, survival T/C
Test: NCI In Vivo Anticancer Drug Screen. Data for tumor model P388 Leukemia (intraperitoneal) in CD2F1 (CDF1) mice
Conditions: endpoint: median survival time, higher = longer survival
Summary of the method: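 Mice carrying the transplanted tumor received test compound or vehicle. Survival was recorded in each group, and the value is the treated-group measurement divided by that of the vehicle-treated control group.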

[1] = dose: 50.0 mg/kg/injection, schedule: Q01DX009 (ip), vehicle: saline with Tween-80
[2] = dose: 200.0 mg/kg/injection, schedule: Q01DX009 (ip), vehicle: saline with Tween-80
[3] = dose: 50.0 mg/kg/injection, schedule: Q01DX009 (ip), vehicle: saline
[4] = dose: 100.0 mg/kg/injection, schedule: Q01DX009 (ip), vehicle: saline
[5] = dose: 200.0 mg/kg/injection, schedule: Q01DX009 (ip), vehicle: saline
[6] = dose: 12.5 mg/kg/injection, schedule: Q01DX005 (ip), vehicle: saline with Tween-80
[7] = dose: 25.0 mg/kg/injection, schedule: Q01DX005 (ip), vehicle: saline with Tween-80
[8] = dose: 50.0 mg/kg/injection, schedule: Q01DX005 (ip), vehicle: saline with Tween-80
[9] = dose: 200.0 mg/kg/injection, schedule: Q01DX005 (ip), vehicle: saline with Tween-80
[10] = dose: 60.0 mg/kg/injection, schedule: Q01DX005 (ip), vehicle: saline with Tween-80
[11] = dose: 120.0 mg/kg/injection, schedule: Q01DX005 (ip), vehicle: saline with Tween-80
[12] = dose: 240.0 mg/kg/injection, schedule: Q01DX005 (ip), vehicle: saline with Tween-80
[13] = dose: 100.0 mg/kg/injection, schedule: Q01DX005 (ip), vehicle: saline with Tween-80
[14] = dose: 50.0 mg/kg/injection, schedule: Q01DX005 (ip), vehicle: Klucel (hydroxypropylcellulose) (HPC)
[15] = dose: 100.0 mg/kg/injection, schedule: Q01DX005 (ip), vehicle: Klucel (hydroxypropylcellulose) (HPC)
[16] = dose: 200.0 mg/kg/injection, schedule: Q01DX005 (ip), vehicle: Klucel (hydroxypropylcellulose) (HPC)
[17] = dose: 100.0 mg/kg/injection, schedule: Q01DX009 (ip), vehicle: saline with Tween-80
[18] = dose: 12.5 mg/kg/injection, schedule: Q01DX009 (ip), vehicle: saline
[19] = dose: 25.0 mg/kg/injection, schedule: Q01DX009 (ip), vehicle: saline
[20] = dose: 50.0 mg/kg/injection, schedule: Q01DX009 (ip), vehicle: Klucel (hydroxypropylcellulose) (HPC)
[21] = dose: 100.0 mg/kg/injection, schedule: Q01DX009 (ip), vehicle: Klucel (hydroxypropylcellulose) (HPC)

## C=C1C(=O)OC2CCC3OC(C)(C)OC3C12 (centres undefined)
dose: 12.5 mg/kg/injection, schedule: Q01DX009 (ip), vehicle: DMSO
  T/C: 95 % of control
dose: 25.0 mg/kg/injection, schedule: Q01DX009 (ip), vehicle: DMSO
  T/C: 122 % of control
dose: 50.0 mg/kg/injection, schedule: Q01DX009 (ip), vehicle: DMSO
  T/C: 101 % of control
dose: 100.0 mg/kg/injection, schedule: Q01DX009 (ip), vehicle: DMSO
  T/C: 110 % of control
dose: 200.0 mg/kg/injection, schedule: Q01DX009 (ip), vehicle: DMSO
  T/C: 113 % of control

## CSc1nc(N)c(C#N)c(SC)c1C#N
dose: 50.0 mg/kg/injection, schedule: Q04DX003 (ip), vehicle: saline
  T/C: 98 % of control
dose: 100.0 mg/kg/injection, schedule: Q04DX003 (ip), vehicle: saline
  T/C: 112 % of control
dose: 200.0 mg/kg/injection, schedule: Q04DX003 (ip), vehicle: saline
  T/C: 101 % of control

## CCCCCCCCCCCCCCCCOc1ccc(-c2cc(Cl)c3cc(S(=O)(=O)F)ccc3n2)cc1S(=O)(=O)F
[1]
  T/C: 86 % of control
dose: 50.0 mg/kg/injection, schedule: Q04DX003 (ip), vehicle: saline with Tween-80
  T/C: 90 % of control
[2]
  T/C: 90 % of control
dose: 200.0 mg/kg/injection, schedule: Q04DX003 (ip), vehicle: saline with Tween-80
  T/C: 90 % of control

## CCOC(=O)CC(COC)C(Br)(C(=O)OCC)C(=O)OCC (centres undefined)
dose: 1.56 mg/kg/injection, schedule: Q01DX009 (ip), vehicle: water
  T/C: 104 % of control
dose: 3.13 mg/kg/injection, schedule: Q01DX009 (ip), vehicle: water
  T/C: 111 % of control
dose: 6.25 mg/kg/injection, schedule: Q01DX009 (ip), vehicle: water
  T/C: 107 % of control
dose: 12.5 mg/kg/injection, schedule: Q01DX009 (ip), vehicle: water
  T/C: 114 % of control
dose: 25.0 mg/kg/injection, schedule: Q01DX009 (ip), vehicle: water
  T/C: 113 % of control

## CN1c2ccccc2C(C)(C)C12C=Cc1cc(O)ccc1O2 (centres undefined)
[3]
  T/C: 93 % of control
[4]
  T/C: 96 % of control
[5]
  T/C: 113 % of control

## C[C@]12CC[C@H](O)C[C@@H]1CC[C@@H]1[C@@H]2CC[C@]2(C)c3nc4ccccc4c(C(=O)O)c3C[C@@H]12
[6]
  T/C: 101 % of control
[7]
  T/C: 100 % of control
[8]
  T/C: 86 % of control and 94 % of control
[9]
  T/C: 93 % of control

## COC1(OC)C2(Cl)C(Cl)=C(Cl)C1(Cl)C1CCCCCC12 (centres undefined)
[10]
  T/C: 97 % of control
[11]
  T/C: 97 % of control
[12]
  T/C: 101 % of control

## O=C(Cc1csc2ccccc12)NCC1CC1
[10]
  T/C: 100 % of control
[11]
  T/C: 99 % of control
[12]
  T/C: 99 % of control

## CCOCc1nc(N)nc(N)c1-c1cccc(Cl)c1
[10]
  T/C: 100 % of control
[11]
  T/C: 102 % of control

## Nc1nc2cc3[nH]ncc3cc2c(=O)[nH]1
[6]
  T/C: 98 % of control
[7]
  T/C: 91 % of control
[8]
  T/C: 94 % of control and 97 % of control
[13]
  T/C: 101 % of control
[9]
  T/C: 102 % of control

## CCCC(NC(=O)OCc1ccccc1)C(=O)NC(Cc1ccccc1)C(=O)O (centres undefined) (Cbz-[Nva]-Phe-OH; configuration not given here)
[14]
  T/C: 108 % of control
[15]
  T/C: 106 % of control
[16]
  T/C: 100 % of control

## COc1ccc(OC)c(NC(=O)Oc2c(C)cc(Cl)cc2Br)c1
[1]
  T/C: 97 % of control
[17]
  T/C: 99 % of control
[2]
  T/C: 100 % of control

## Cc1cc(C(=O)N/N=C/c2ccccc2O)c2cc(Br)ccc2n1
dose: 12.5 mg/kg/injection, schedule: Q01DX009 (ip), vehicle: saline with Tween-80
  T/C: 88 % of control
dose: 25.0 mg/kg/injection, schedule: Q01DX009 (ip), vehicle: saline with Tween-80
  T/C: 92 % of control
[17]
  T/C: 98 % of control
[2]
  T/C: 97 % of control

## CNN(C)P(=S)(Oc1ccccc1)N(C)NC
[8]
  T/C: 101 % of control
[13]
  T/C: 103 % of control
[9]
  T/C: 102 % of control

## C=CC1(C)CC(C)=NC1C(=O)c1c[nH]c2ccccc12 (centres undefined)
dose: 12.5 mg/kg/injection, schedule: Q01DX005 (ip), vehicle: DMSO
  T/C: 100 % of control
dose: 25.0 mg/kg/injection, schedule: Q01DX005 (ip), vehicle: DMSO
  T/C: 97 % of control
dose: 50.0 mg/kg/injection, schedule: Q01DX005 (ip), vehicle: DMSO
  T/C: 90 % of control
dose: 100.0 mg/kg/injection, schedule: Q01DX005 (ip), vehicle: DMSO
  T/C: 94 % of control
dose: 200.0 mg/kg/injection, schedule: Q01DX005 (ip), vehicle: DMSO
  T/C: 90 % of control

## CCC/C(=N\NC(=S)N1CC2CCC(CC2)C1)c1ccccn1
dose: 6.25 mg/kg/injection, schedule: Q01DX005 (ip), vehicle: saline with Tween-80
  T/C: 104 % of control and 110 % of control
[6]
  T/C: 113 % of control and 116 % of control
[7]
  T/C: 120 % of control

## CC(C)(C)c1ccc(N)c(C(O)(C(F)(F)F)C(F)(F)F)c1
dose: 30.0 mg/kg/injection, schedule: Q01DX005 (ip), vehicle: saline with Tween-80
  T/C: 100 % of control and 90 % of control

## Cc1cc(NS(=O)(=O)c2ccc(N)cc2)no1
dose: 25.0 mg/kg/injection, schedule: Q01DX005 (ip), vehicle: saline
  T/C: 106 % of control
dose: 50.0 mg/kg/injection, schedule: Q01DX005 (ip), vehicle: saline
  T/C: 103 % of control
dose: 100.0 mg/kg/injection, schedule: Q01DX005 (ip), vehicle: saline
  T/C: 114 % of control
dose: 200.0 mg/kg/injection, schedule: Q01DX005 (ip), vehicle: saline
  T/C: 101 % of control
dose: 400.0 mg/kg/injection, schedule: Q01DX005 (ip), vehicle: saline
  T/C: 97 % of control

## CN(C)CCCCNc1ccc(NCCCCN(C)C)c2c1C(=O)c1c(O)ccc(O)c1C2=O
[18]
  T/C: 100 % of control
[19]
  T/C: 108 % of control
[3]
  T/C: 106 % of control

## Cc1cccc(Cl)c1NC(=O)Nc1ccc(Cl)cc1C(=O)c1ccccc1
[10]
  T/C: 99 % of control
[11]
  T/C: 94 % of control
[12]
  T/C: 101 % of control

## O=C1CC2c3ccccc3CCN2C2=C1CCC2 (centres undefined)
[8]
  T/C: 96 % of control
[13]
  T/C: 104 % of control

## COC(=O)c1cccc2c1Oc1ccccc1S2
dose: 25.0 mg/kg/injection, schedule: Q01DX005 (ip), vehicle: Klucel (hydroxypropylcellulose) (HPC)
  T/C: 102 % of control
[14]
  T/C: 103 % of control
[15]
  T/C: 102 % of control
[16]
  T/C: 100 % of control

## OC1COCC1O (centres undefined)
dose: 25.0 mg/kg/injection, schedule: Q01DX009 (ip), vehicle: Klucel (hydroxypropylcellulose) (HPC)
  T/C: 100 % of control
[20]
  T/C: 102 % of control
[21]
  T/C: 100 % of control

## OC1(c2ccc(C3(O)C(c4ccccc4)=C(c4ccccc4)C(c4ccccc4)=C3c3ccccc3)cc2)C(c2ccccc2)=C(c2ccccc2)C(c2ccccc2)=C1c1ccccc1
[20]
  T/C: 105 % of control
[21]
  T/C: 86 % of control
dose: 200.0 mg/kg/injection, schedule: Q01DX009 (ip), vehicle: Klucel (hydroxypropylcellulose) (HPC)
  T/C: 90 % of control

## CN(C)C(=S)SC(=S)Sc1c(Cl)c(Cl)c(Cl)c(Cl)c1Cl
[1]
  T/C: 99 % of control
[17]
  T/C: 100 % of control
[2]
  T/C: 99 % of control

## CC(C)CC(NC(=O)C(Cc1ccccc1)NC(=O)C1CCCN1)C(=O)OC(C)(C)C (stereo not drawn) (H-Pro-Phe-Leu-OtBu; configuration not given here)
[14]
  T/C: 102 % of control
[15]
  T/C: 94 % of control
[16]
  T/C: 94 % of control

## OCCCOCCCOCCCOCCCO
dose: 100.0 mg/kg/injection, schedule: Q01DX001 (ip), vehicle: saline
  T/C: 101 % of control
dose: 200.0 mg/kg/injection, schedule: Q01DX001 (ip), vehicle: saline
  T/C: 108 % of control
dose: 400.0 mg/kg/injection, schedule: Q01DX001 (ip), vehicle: saline
  T/C: 101 % of control

## COc1cc(/C=C/C(=O)NCCCCN)ccc1O
[10]
  T/C: 105 % of control
[11]
  T/C: 101 % of control
[12]
  T/C: 95 % of control

## CN(CCN(C)C(=O)CCOS(C)(=O)=O)C(=O)CCOS(C)(=O)=O
[18]
  T/C: 151 % of control
[19]
  T/C: 175 % of control
[3]
  T/C: 192 % of control and 210 % of control
[4]
  T/C: 260 % of control and 290 % of control
[5]
  T/C: 116 % of control and 297 % of control
